The source of these data is ChEMBL document CHEMBL1201862, “PubChem BioAssay data set” (2004).

Active and inactive are the calls of the source.

Test [1] in a line: fluconazole-exposed Candida albicans growth modulators – fluorescence, retest, confirmation (AID 2467). Format: functional, cell-based.
In another test the target is T1, Exodeoxyribonuclease V (Escherichia coli (strain K12), UniProt P04993+P07648+P08394).
T1 sequence (P04993 whole entry): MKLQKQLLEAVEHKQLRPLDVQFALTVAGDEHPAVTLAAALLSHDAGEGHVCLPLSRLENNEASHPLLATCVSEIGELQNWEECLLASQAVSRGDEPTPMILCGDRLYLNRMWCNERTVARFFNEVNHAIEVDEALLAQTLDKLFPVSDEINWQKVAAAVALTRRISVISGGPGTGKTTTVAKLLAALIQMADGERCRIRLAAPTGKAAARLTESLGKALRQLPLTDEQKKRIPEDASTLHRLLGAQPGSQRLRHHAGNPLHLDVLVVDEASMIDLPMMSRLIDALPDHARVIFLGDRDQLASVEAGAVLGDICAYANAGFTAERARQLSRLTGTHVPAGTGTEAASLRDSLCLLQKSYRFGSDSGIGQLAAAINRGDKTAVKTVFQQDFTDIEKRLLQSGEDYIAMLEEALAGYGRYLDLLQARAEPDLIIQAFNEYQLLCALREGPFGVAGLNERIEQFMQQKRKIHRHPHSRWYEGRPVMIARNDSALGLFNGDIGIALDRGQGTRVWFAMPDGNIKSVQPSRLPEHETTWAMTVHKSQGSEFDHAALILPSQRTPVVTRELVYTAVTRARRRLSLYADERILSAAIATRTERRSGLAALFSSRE
T1 sequence (P07648 whole entry): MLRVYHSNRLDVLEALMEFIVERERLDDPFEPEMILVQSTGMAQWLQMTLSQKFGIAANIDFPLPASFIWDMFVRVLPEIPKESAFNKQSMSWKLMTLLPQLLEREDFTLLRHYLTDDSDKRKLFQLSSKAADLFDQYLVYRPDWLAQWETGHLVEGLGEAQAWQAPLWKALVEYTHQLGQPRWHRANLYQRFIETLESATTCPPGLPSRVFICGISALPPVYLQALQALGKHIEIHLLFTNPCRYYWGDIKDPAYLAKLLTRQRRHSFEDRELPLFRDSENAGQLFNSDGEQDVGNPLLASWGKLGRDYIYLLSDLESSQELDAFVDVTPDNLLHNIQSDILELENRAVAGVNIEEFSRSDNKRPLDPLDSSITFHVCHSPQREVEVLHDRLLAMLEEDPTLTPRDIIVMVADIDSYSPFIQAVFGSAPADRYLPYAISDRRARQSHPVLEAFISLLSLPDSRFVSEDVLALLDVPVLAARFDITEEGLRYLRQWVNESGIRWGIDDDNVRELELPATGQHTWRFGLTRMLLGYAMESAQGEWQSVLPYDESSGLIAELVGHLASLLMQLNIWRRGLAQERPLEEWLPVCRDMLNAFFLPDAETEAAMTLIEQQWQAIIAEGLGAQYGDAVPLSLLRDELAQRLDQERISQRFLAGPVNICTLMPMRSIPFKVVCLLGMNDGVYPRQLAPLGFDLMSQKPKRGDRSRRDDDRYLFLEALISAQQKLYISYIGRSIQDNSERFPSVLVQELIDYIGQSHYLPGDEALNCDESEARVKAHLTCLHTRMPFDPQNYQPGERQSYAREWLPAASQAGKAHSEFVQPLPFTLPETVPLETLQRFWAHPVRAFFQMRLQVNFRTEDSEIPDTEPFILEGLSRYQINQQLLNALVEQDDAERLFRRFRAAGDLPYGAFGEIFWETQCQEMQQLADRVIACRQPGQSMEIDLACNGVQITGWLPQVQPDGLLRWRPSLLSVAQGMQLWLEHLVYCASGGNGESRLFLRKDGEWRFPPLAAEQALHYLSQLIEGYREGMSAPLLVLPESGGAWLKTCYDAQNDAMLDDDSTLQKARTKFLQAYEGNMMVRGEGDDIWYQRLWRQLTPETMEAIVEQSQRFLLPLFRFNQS
T1 sequence (P08394 whole entry): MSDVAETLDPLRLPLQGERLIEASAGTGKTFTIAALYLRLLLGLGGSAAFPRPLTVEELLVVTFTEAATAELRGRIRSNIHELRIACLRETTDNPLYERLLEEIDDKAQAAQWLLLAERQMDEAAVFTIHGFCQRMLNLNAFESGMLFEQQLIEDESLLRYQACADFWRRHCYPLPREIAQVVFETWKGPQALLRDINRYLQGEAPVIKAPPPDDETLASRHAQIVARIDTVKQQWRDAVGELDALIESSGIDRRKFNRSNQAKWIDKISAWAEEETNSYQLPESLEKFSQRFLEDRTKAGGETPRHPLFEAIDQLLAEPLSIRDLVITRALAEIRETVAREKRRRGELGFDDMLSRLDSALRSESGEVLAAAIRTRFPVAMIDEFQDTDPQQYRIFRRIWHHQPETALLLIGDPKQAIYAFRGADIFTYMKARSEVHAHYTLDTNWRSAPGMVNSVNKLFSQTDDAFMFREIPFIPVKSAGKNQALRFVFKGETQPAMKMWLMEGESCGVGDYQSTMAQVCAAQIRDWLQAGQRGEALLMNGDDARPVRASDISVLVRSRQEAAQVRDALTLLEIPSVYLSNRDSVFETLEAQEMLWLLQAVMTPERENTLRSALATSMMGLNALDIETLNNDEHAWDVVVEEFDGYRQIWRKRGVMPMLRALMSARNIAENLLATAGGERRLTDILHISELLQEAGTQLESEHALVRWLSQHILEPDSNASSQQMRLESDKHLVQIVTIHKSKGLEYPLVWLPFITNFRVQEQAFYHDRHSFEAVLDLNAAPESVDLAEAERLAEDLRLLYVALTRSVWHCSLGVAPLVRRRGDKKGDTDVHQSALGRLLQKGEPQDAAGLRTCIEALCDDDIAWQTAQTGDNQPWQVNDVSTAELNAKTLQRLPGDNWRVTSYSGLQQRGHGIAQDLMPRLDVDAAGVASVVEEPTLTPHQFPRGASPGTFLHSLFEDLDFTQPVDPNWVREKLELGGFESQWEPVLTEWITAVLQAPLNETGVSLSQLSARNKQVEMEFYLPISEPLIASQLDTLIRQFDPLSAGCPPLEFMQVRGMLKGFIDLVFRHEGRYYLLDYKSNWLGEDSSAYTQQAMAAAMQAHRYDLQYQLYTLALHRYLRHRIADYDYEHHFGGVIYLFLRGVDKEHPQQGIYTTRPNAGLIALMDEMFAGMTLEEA
Put plainly: RecBCD inhibition via phage-restricted bacterial growth – absorbance, V66 E. coli, mutant T4 phage, counter-screen for AddAB inhibitor project, dose response (AID 492957). The test is classed as functional, cell-based, Escherichia coli str. K-12 substr. MG1655.

Test [2] can be described thus: Counterscreen for AddAB inhibitors: absorbance-based bacterial cell-based high throughput dose response assay for inhibitors of bacterial viability. [Related pubchem assays (depositor defined):AID435030, AID449728, AID449731, AID488942, AID488955, AID488956]. Format: functional. Background: The purpose of a counterscreen is to sort out artefacts and off-target activity.

Test [3] concerns the target ATP-dependent molecular chaperone HSP82 (Candida albicans (strain WO-1) (Yeast), UniProt C4YTQ8). Put plainly: steroid-induced GRE reporter decrease in yeast – S. cerevisiae, luminescence, Hsp90 inhibitor project, dose response (AID 2400).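 Also: beta-galactosidase luminescence from glucocorticoid response element reporter as proxy for Hsp90 function; inhibitor potency where signal loss means Hsp90 inhibition.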 The test is classed as functional, cell-based.

Sequence of ATP-dependent molecular chaperone HSP82 (C4YTQ8 whole entry): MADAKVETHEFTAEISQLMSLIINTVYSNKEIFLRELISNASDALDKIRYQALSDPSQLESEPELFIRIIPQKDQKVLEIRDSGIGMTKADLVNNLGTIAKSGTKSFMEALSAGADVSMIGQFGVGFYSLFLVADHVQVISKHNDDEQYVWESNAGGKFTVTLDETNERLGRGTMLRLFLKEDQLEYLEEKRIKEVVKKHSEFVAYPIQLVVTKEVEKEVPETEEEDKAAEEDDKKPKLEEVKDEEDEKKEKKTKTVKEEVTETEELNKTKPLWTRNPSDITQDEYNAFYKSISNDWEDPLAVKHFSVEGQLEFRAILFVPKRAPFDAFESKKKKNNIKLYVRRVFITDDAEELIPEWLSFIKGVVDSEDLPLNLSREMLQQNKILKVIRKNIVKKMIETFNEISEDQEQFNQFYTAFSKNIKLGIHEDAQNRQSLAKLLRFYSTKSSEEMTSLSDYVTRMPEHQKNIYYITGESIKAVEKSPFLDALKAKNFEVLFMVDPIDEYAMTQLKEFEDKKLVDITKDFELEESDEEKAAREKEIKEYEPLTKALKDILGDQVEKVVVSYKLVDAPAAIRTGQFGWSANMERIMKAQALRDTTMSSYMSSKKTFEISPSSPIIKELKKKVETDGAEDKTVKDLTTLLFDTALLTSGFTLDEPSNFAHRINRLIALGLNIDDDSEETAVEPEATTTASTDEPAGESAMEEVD

For `CCCCC(=O)NC(c1ccc(Cl)cc1)c1ccc2cccnc2c1O` (configuration not stated), the EC50 – broadly, the concentration at which the effect is half-maximal – is 0.413 µM (active) in test [1] and 29.1 µM (active) in test [3]. Besides, the IC50 (at Exodeoxyribonuclease V; in test [2]) was > 119 µM (inactive) each time.
In the case of `O=C(N/N=C/c1ccccc1O)/C(O)=C\C1=NC2(CCCC2)Cc2ccccc21`, the EC50 in test [1] was 0.663 µM (active); in test [3] it was 22.1 µM (active). Besides, the IC50 (at Exodeoxyribonuclease V; in test [2]) was > 119 µM (inactive) throughout.
Regarding `CCCCC(=O)NC(c1ccco1)c1cc(Cl)c2cccnc2c1O` (configuration not stated), the concentration for a half-maximal effect (EC50) was 0.537 µM (active) in test [1] and > 160 µM (inactive) in test [3]. The IC50 (at Exodeoxyribonuclease V; in test [2]) was > 119 µM (inactive) throughout.
